From patent publication US8883428B2, “Methods to determine atherosclerosis regression, plaque stabilization and cardiovascular risk” (The Regents of the University of California, priority 2009, dated 2014) come the findings set out here.

The conditions of assay [1]: patients with coronary artery disease already on statins; measured before and after treatment; FIG. 3.
The nature of assay [2]: OxPL/apoA in patients treated with JTT-705, then placebo. The assay is classed as in vivo, human. The following applies: nineteen patients; active treatment followed by placebo; FIG. 4. The protocol: Patients were then taken off the JTT-705 and placed on placebo. […] Add 50 μl/well. […] Leave at room temperature for 1-2 hours. Wash plate as above. […] Incubate at room temperature for 1 hour. Wash plate with cell washer set at 4 washes. […] Keep in the dark. Read in Chemiluminescence detector as relative light units (RLU). All assays are run in triplicate.

Consider `O=C(O)c1cccnc1` [niacin], for which the “OxPL/apoA change following treatment” value in assay [1] is reported as “increased significantly”.

As for `CCC(CC)CC1(C(=O)Nc2ccccc2SC(=O)C(C)C)CCCCC1` [JTT-705], the “OxPL/apoA change during treatment” value in assay [2] is recorded as “increased during the active treatment”.
